Laboratory results from PMC8667902 (Journal of Enzyme Inhibition and Medicinal Chemistry, 2021).
Several values for one entry are separate records, joined by “and”; a condition that tells them apart may be missing. Identical values can stand only once.

What was measured:
ratAChE = molecular target: T1, ratAChE (Rattus norvegicus, UniProt P37136); assay: Ellman's method, AChE from rat cortex homogenate; type: biochemical; details: for SI = Selectivity index = IC50 (BuChE)/IC50 (AChE): ratBuChE over rat AChE
T1 sequence (P37136 32-614): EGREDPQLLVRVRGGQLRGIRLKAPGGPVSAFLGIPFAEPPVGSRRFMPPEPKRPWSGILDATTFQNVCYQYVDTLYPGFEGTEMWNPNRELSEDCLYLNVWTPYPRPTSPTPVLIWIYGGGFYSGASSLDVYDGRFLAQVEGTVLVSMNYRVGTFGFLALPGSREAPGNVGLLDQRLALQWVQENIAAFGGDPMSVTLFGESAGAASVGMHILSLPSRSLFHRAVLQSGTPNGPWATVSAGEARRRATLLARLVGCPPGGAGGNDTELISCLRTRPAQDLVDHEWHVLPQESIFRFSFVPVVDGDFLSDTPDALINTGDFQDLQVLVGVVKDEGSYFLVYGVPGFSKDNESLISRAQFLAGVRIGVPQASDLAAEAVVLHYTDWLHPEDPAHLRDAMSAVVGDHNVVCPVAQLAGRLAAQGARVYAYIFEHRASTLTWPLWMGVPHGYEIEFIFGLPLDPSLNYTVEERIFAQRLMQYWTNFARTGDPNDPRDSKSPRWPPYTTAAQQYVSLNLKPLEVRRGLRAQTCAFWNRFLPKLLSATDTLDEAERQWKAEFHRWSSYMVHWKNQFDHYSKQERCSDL

[1] = Oxygen Radicals Absorbance Capacity by Fluorescence; details: for ORAC: Trolox as reference; for ORAC-FL value: Trolox equivalents
Aβ1–42 fibrils [2] = molecular target: T2, Aβ1–42 fibrils (Homo sapiens, UniProt P05067); assay: Disaggregation of Cu2+-induced Aβ1–42 aggregation; type: biochemical; details: 25 μM; ThT assay
Aβ1–42 [3] = molecular target: T3, Aβ1–42 (Homo sapiens, UniProt P05067); assay: Inhibition of Cu2+-induced Aβ1–42 aggregation; type: biochemical; details: read-out: Inhibition of Aβ1–42 aggregation (%) Cu^2+-induced
[4] = Metal chelation by UV-vis spectrometry and molar ratio method; type: physicochemical; details: for shift of characteristic UV peak after adding FeSO4 and ZnCl2 / characteristic UV peak after adding AlCl3 (red shift) / characteristic UV peak after adding CuCl2 (red shift): 37.5 μM; for characteristic UV peak after adding AlCl3 (red shift) / characteristic UV peak after adding CuCl2 (red shift): peak of compound alone: 9d 362 nm, 17f 350 nm
ratBuChE = ratBuChE (Rattus norvegicus, UniProt Q9JKC1); assay: Ellman's method, BuChE from rat serum; type: biochemical
huMAO-A = molecular target: T4, huMAO-A (Homo sapiens, UniProt P21397); assay: huMAO-A inhibition, fluorescence method; type: biochemical; details: for inhibition at 10 µM: read-out: MAO-A percent inhibition rate
T4 sequence (P21397 1-527): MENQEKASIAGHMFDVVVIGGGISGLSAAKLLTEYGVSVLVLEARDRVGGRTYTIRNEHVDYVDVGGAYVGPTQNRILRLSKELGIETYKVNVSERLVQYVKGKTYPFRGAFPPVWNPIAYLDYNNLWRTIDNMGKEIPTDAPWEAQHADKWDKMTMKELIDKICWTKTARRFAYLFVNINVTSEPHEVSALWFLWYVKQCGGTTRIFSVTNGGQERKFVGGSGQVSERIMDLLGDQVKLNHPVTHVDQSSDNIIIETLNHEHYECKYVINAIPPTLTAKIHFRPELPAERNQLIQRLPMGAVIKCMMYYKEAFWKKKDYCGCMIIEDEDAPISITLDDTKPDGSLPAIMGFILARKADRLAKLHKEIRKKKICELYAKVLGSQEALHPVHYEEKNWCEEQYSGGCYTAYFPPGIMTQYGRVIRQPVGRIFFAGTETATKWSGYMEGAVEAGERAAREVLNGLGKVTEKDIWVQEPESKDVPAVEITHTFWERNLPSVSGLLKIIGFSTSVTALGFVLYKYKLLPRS

huMAO-B = molecular target: T5, huMAO-B (Homo sapiens, UniProt P27338); assay: biochemical; details: for inhibition at 10 µM: read-out: MAO-B percent inhibition rate
T5 sequence (P27338 1-520): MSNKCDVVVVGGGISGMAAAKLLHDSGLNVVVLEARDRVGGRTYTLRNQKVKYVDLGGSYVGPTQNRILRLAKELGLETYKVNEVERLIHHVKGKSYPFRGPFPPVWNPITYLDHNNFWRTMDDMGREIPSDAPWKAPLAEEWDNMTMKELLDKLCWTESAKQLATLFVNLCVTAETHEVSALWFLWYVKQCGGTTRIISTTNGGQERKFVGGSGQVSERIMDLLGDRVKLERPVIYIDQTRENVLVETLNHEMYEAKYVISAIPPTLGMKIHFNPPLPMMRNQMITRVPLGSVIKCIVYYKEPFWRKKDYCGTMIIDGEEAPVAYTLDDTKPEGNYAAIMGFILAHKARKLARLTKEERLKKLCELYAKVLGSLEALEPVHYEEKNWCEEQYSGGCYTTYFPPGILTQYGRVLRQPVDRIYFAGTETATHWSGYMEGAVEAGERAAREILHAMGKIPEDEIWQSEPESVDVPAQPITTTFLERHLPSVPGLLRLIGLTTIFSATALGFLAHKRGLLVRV

eeAChE = eeAChE (Electrophorus electricus, UniProt O42275); assay: Ellman's method, electric eel AChE; type: biochemical
Aβ1–42 [5] = molecular target: T3, Aβ1–42; assay: Inhibition of self-induced Aβ1–42 aggregation; type: biochemical; details: read-out: Inhibition of Aβ1–42 aggregation (%) Self-induced, 25 μM; ThT assay
Aβ1–42 fibrils [6] = molecular target: T2, Aβ1–42 fibrils; assay: Disaggregation of self-induced Aβ1–42 aggregation; type: biochemical; details: 25 μM; ThT assay
PC12 cells [7] = assay: Neuroprotection against H2O2-induced PC12 cell injury, LDH assay; type: cell-based; details: H2O2 alone 712.7, vehicle 602.3
PC12 cells [8] = assay: Cytotoxicity in PC12 cells, MTT assay; type: cell-based; details: up to 50 µM
AChE PAS (eeAChE) = AChE PAS (eeAChE) (Electrophorus electricus, UniProt O42275); assay: Propidium iodide displacement assay; type: binding, electric eel; details: read-out: Propidium iodide displacement from AChE PAS (% inhibition)
[9] = molecular target: huAChE-induced Aβ1–40 aggregation (Homo sapiens, UniProt P22303); assay: Inhibition of huAChE-induced Aβ1–40 aggregation; type: biochemical; details: compound 100 μM, Aβ1–40 230 μM, Aβ1–40/HuAChE 100/1; ThT; mean ± SEM
AChE = assay: Kinetic characterisation of AChE inhibition; type: biochemical; details: Lineweaver-Burk plots, substrate acetylthiocholine

Sequence of ratBuChE (Q9JKC1 24-597): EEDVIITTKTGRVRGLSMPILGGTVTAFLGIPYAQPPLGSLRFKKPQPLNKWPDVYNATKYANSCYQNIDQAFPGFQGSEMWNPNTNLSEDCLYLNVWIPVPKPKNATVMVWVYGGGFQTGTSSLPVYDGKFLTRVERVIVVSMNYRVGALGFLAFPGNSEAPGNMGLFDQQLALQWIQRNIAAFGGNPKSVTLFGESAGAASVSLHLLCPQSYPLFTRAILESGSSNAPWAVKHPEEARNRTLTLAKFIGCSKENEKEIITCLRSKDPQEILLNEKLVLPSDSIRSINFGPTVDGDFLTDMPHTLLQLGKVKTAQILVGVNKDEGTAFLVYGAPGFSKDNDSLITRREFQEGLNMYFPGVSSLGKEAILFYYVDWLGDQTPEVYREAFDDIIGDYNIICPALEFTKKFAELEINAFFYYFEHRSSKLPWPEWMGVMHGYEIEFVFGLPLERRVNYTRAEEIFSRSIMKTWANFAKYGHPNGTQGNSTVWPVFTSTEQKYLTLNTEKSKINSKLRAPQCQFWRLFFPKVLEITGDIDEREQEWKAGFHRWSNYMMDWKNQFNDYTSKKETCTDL
Sequence of eeAChE (O42275 24-633): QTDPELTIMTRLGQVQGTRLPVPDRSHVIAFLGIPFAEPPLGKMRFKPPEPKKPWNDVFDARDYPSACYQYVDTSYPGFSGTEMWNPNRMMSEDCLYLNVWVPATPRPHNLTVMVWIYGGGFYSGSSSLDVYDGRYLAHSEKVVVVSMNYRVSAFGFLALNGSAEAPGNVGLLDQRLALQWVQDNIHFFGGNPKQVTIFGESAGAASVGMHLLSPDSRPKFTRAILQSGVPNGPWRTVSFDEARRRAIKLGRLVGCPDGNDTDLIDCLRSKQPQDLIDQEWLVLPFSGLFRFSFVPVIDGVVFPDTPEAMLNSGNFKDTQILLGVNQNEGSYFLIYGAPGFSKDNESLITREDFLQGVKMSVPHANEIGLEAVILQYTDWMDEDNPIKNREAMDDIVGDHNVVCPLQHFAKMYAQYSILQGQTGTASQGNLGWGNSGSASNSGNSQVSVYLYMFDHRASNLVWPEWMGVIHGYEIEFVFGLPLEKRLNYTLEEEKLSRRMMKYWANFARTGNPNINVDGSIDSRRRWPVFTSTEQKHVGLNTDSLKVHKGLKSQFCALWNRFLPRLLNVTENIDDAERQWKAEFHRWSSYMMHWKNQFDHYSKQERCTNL
T2 sequence (P05067 672-713): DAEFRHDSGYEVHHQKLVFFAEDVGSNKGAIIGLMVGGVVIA
T3 sequence (P05067 672-713): as above
Sequence of AChE PAS (eeAChE) (O42275 24-633): as the sequence (O42275 24-633) above
Sequence of huAChE-induced Aβ1–40 aggregation (P22303 32-614): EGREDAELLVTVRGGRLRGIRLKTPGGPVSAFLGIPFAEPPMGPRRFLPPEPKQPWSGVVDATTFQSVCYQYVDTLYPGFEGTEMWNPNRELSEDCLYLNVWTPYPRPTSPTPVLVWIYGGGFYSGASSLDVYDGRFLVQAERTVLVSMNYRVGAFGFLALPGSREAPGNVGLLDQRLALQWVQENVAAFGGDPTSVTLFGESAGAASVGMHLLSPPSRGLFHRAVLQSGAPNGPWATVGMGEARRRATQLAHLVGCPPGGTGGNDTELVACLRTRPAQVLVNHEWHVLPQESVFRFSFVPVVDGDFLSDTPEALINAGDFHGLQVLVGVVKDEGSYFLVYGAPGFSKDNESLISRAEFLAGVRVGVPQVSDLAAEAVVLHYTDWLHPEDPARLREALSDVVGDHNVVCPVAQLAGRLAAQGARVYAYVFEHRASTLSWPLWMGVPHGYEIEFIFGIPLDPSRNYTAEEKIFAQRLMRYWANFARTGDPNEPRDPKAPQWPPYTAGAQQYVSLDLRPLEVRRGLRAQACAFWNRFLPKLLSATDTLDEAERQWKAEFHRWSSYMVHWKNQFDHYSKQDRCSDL

Row | SMILES | IC50 (ratAChE) [µM] | SI = Selectivity index = IC50 (BuChE)/IC50 (AChE) (ratAChE) | ORAC [1] | Disaggregation of Aβ1–42 aggregation (%) Cu^2+-induced (Aβ1–42 fibrils [2]) | inhibition at 25 µM (Aβ1–42 [3]) [%] | IC50 (ratBuChE) [µM] | IC50 (huMAO-A) [µM] | IC50 (huMAO-B) [µM] | IC50 (eeAChE) [µM] | inhibition at 25 µM (Aβ1–42 [5]) [%] | Disaggregation of Aβ1–42 aggregation (%) Self-induced (Aβ1–42 fibrils [6]) | inhibition at 10 µM (huMAO-A) [%] | further results
1 | CCN(CCCCOc1ccc(/C=C/C(=O)c2c(O)cc(OC)c(OC)c2OC)cc1)Cc1ccccc1OC [Compound 9d, (E)-3-(4-(4-(ethyl(2-methoxybenzyl)amino)butoxy)phenyl)-1-(6-hydroxy-2,3,4-trimethoxyphenyl)prop-2-en-1-one] | 0.32 ± 0.02 | 1409.4 | 1.01 ± 0.2 μM of Trolox equivalent/μM of compounds | 63.2 ± 0.63% | 72.4 ± 0.01 | 451 ± 1.68 | 38.2 ± 0.63 | 12.3 ± 0.08 | 1.2 ± 0.01 | 72.7 ± 0.02 | 33.0 ± 0.08% |  | ORAC-FL value [1]: 0.96 eq; shift of characteristic UV peak after adding FeSO4 and ZnCl2 [4]: no obvious shift; characteristic UV peak after adding AlCl3 (red shift) [4]: 376 nm; characteristic UV peak after adding CuCl2 (red shift) [4]: 444 nm; SI = selectivity index = IC50 (hMAO-A)/IC50 (hMAO-B) (huMAO-B): 3.1
2 | CCN(CCCOc1ccc(/C=C/C(=O)c2c(O)cc(OC)c(O)c2OC)cc1)Cc1ccccc1OC [Compound 17b, (E)-1-(3,6-dihydroxy-2,4-dimethoxyphenyl)-3-(4-(3-(ethyl(2-methoxybenzyl)amino)propoxy)phenyl)prop-2-en-1-one] | 0.73 ± 0.01 | 212.3 | 2.9 ± 0.02 μM of Trolox equivalent/μM of compounds | 82.8 ± 0.03% | 90.2 ± 0.02 | 155 ± 5.8 |  |  | 3.16 ± 0.02 | 82.1 ± 0.01 | 60.2 ± 0.03% | 14.6 | inhibition at 10 µM (huMAO-B): 2.1%
3 | COc1ccccc1CN(C)CCCCOc1ccc(/C=C/C(=O)c2c(O)cc(OC)c(O)c2OC)cc1 [Compound 17c, (E)-1-(3,6-dihydroxy-2,4-dimethoxyphenyl)-3-(4-(4-((2-methoxybenzyl)(methyl)amino)butoxy)phenyl)prop-2-en-1-one] | 1.63 ± 0.02 | >306.7 | 2.8 ± 0.01 μM of Trolox equivalent/μM of compounds | 79.1 ± 0.15% | 92.5 ± 0.03 | > 500 | 18.3 ± 0.15 |  | 3.74 ± 0.03 | 68.4 ± 0.02 | 75.9 ± 0.03% |  | inhibition at 10 µM (huMAO-B): 11%
4 | CCN(CCCCOc1ccc(/C=C/C(=O)c2c(O)cc(OC)c(O)c2OC)cc1)Cc1ccccc1OC [Compound 17d, (E)-1-(3,6-dihydroxy-2,4-dimethoxyphenyl)-3-(4-(4-(ethyl(2-methoxybenzyl)amino)butoxy)phenyl)prop-2-en-1-one] | 0.58 ± 0.01 | 700 | 3.1 ± 0.01 μM of Trolox equivalent/μM of compounds | 79.8 ± 0.03% | 91.7 ± 0.02 | 406 ± 15.2 |  | 15.1 ± 0.16 | 3.68 ± 0.02 | 73.8 ± 0.01 | 45.7 ± 0.16% | 16.7 | 
5 | COc1ccccc1CN(C)CCCCCCOc1ccc(/C=C/C(=O)c2c(O)cc(OC)c(O)c2OC)cc1 [Compound 17e, (E)-1-(3,6-dihydroxy-2,4-dimethoxyphenyl)-3-(4-((6-((2-methoxybenzyl)(methyl)amino)hexyl)oxy)phenyl)prop-2-en-1-one] | 1.4 ± 0.02 | >357.1 | 3.4 ± 0.02 μM of Trolox equivalent/μM of compounds | 83.7 ± 0.03% | 96.2 ± 0.02 | > 500 |  | 12.8 ± 0.31 | 2.16 ± 0.01 | 65.7 ± 0.03 | 74.8 ± 0.31% | 17.9 | 
6 | CCN(CCCCCCOc1ccc(/C=C/C(=O)c2c(O)cc(OC)c(O)c2OC)cc1)Cc1ccccc1OC [Compound 17f, (E)-1-(3,6-dihydroxy-2,4-dimethoxyphenyl)-3-(4-((6-(ethyl(2-methoxybenzyl)amino)hexyl)oxy)phenyl)prop-2-en-1-one] |  | >1219.5 | 3.3 ± 0.01 μM of Trolox equivalent/μM of compounds | 84.5% and 84.5 ± 0.35% | 93.5 ± 0.01 | > 500 | 37.5 ± 0.35 | 8.8 ± 0.06 | 1.88 ± 0.01 | 78 ± 0.02 | 72.3% and 72.3 ± 0.06% |  | ORAC-FL value [1]: 3.3 eq; Papp (PAMPA-BBB; PAMPA): 4.23 ± 0.37 ×10⁻⁶ cm/s; Prediction (BBB penetration) (PAMPA-BBB; PAMPA-BBB): CNS+ (Pe (×10^−6 cm/s) > 3.44 × 10^−6 cm/s possess high BBB permeation); LDH vitality (PC12 cells [7]; PC12, 100 µM H2O2, compound 10 µM): 621.3; LDH vitality (PC12 cells [7]; PC12, 100 µM H2O2, compound 50 µM): 549.7; shift of characteristic UV peak after adding FeSO4 and ZnCl2 [4]: no significant shift; mole fraction at break (molar ratio method, compound-Cu^2+) ([4]; 37.5 μM compound, ascending CuCl2): 1.03; characteristic UV peak after adding AlCl3 (red shift) [4]: 370 nm; characteristic UV peak after adding CuCl2 (red shift) [4]: 422 nm; cytotoxicity in PC12 cells (PC12 cells [8]): did not show obvious cytotoxicity; SI = selectivity index = IC50 (hMAO-A)/IC50 (hMAO-B) (huMAO-B): 4.3; inhibition at 10 µM (AChE PAS (eeAChE)): 23.9 ± 1.6%; inhibition at 50 µM (AChE PAS (eeAChE)): 34.2 ± 2.3%; % Inhibition of huAChE-induced Aβ aggregation [9]: 53.9 ± 3.7%; type of AChE inhibition (AChE): mixed-type AChE inhibition
7 | Cc1c(C)c2c(c(C)c1O)CC[C@@](C)(CCC[C@H](C)CCC[C@H](C)CCCC(C)C)O2 [Vitamin E, α-tocopherol, reference compound] |  |  | 2.6 ± 0.06 μM of Trolox equivalent/μM of compounds |  |  |  |  |  |  |  |  |  | LDH vitality (PC12 cells [7]; PC12, 100 µM H2O2, compound 100 µM): 654.7
